# Reference: US20040110802A1, “Antibacterial benzoic acid derivatives” (priority 2002, published 2004)
# Test system: SAUR 9218
# Assay: MIC Test Method, standard agar dilution
# Format: cell-based
# Conditions: agar dilution, Mueller Hinton agar, incubated overnight at 35° C.; lowest concentration that inhibits visible growth; read-out: SAUR 9218 MIC
# Outline: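 MIC (μg/ml) was read as the lowest drug level without visible growth of SAUR 9218 after overnight incubation at 35 °C. Inocula of about 10^4 to 10^5 cells per spot were applied to Mueller Hinton agar containing 2-fold serial compound dilutions.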
row,MIC [µg/mL],SMILES
1,> 128,O=C(Nc1ccc(Br)cc1C(=O)O)c1ccoc1
2,0.125,N#Cc1ccc(NC(=O)c2cc(-c3ccccc3OC3CCC3)on2)c(C(=O)O)c1
3,0.125,COc1ccccc1-c1cc(C(=O)Nc2ccc(C#N)cc2C(=O)O)no1
4,1,O=C(Nc1ccc(Cl)cc1C(=O)O)c1ncc(-c2ccccc2)o1
5,0.125,CCOc1ccccc1-c1cc(C(=O)Nc2ccc(C#N)cc2C(=O)O)no1
6,1,CC(=O)OC(C(=O)Nc1cccc2cc(C(=O)Nc3ccc(C#N)cc3C(=O)O)[nH]c12)c1ccccc1 (stereo not shown)
7,0.5,CCCCCCSc1cnc(C(=O)Nc2ccc(Cl)cc2C(=O)O)cn1
8,0.125,COCC(C)Oc1cccc2cc(C(=O)Nc3ccc(C#N)cc3C(=O)O)n(C)c12 (stereo not shown)
9,> 128,CS(=O)(=O)c1ncc(Cl)c(C(=O)Nc2ccc(Cl)cc2C(=O)O)n1
10,16,O=C(Nc1ccc(Br)cc1C(=O)O)c1ccc2c(c1)S(=O)(=O)c1ccccc1C2=O
11,8,Cc1sc(C(=O)Nc2ccc(C#N)cc2C(=O)O)cc1S(=O)(=O)N1CCCCCCC1
12,1,CCC(=O)COc1ccccc1-c1cc(C(=O)Nc2ccc(O)cc2C(=O)O)no1
13,4,N#Cc1ccc(NC(=O)c2cc(CCl)on2)c(C(=O)O)c1
14,0.5,N#Cc1ccc(NC(=O)c2cc3cccc(NC(=O)c4ccc(-c5ccccc5)cc4)c3[nH]2)c(C(=O)O)c1
15,0.125,Cn1c(C(=O)Nc2ccc(C#N)cc2C(=O)O)cc2cccc(NC(=O)Cc3ccc(F)cc3)c21
16,16,N#Cc1ccc(NC(=O)c2cncc(-c3cccc(C(F)(F)F)c3)c2)c(C(=O)O)c1
17,0.25,COCCOc1cccc2cc(C(=O)Nc3ccc(C#N)cc3C(=O)O)n(C)c12
18,0.5,N#Cc1ccc(NC(=O)c2noc3cc(Br)ccc23)c(C(=O)O)c1
19,0.125,Cl.Cn1c(C(=O)Nc2ccc(C#N)cc2C(=O)O)cc2cccc(OCC(O)CNc3ccccc3)c21 (stereo not shown)

# The next lines start with the compound.
row,SMILES,MIC [µg/mL]
1,Cc1cc(NS(=O)(=O)c2ccc(-c3cc(C(=O)Nc4ccc(Br)cc4C(=O)O)no3)cc2)no1,32
2,O=C(Nc1ccc(Cl)cc1C(=O)O)c1cc2cccc(S(=O)(=O)c3ccccc3)c2[nH]1,0.125
3,N#Cc1ccc(NC(=O)c2csc(SCc3ccccc3)n2)c(C(=O)O)c1,4
4,Cc1ccc(-c2cccc3cc(C(=O)Nc4ccc(C#N)cc4C(=O)O)n(C)c23)s1,0.5
5,Cc1ccccc1-c1cc(C(=O)Nc2ccc(C#N)cc2C(=O)O)no1,0.25
6,N#Cc1ccc(NC(=O)c2cc3cccc(NC(=O)Cc4ccc(Cl)cc4Cl)c3[nH]2)c(C(=O)O)c1,0.25
7,CC(=O)Nc1cccc(-c2ccc3c(C(=O)Nc4ccc(C#N)cc4C(=O)O)noc3c2)c1,0.015
8,Cc1sc(C(=O)Nc2ccc(C#N)cc2C(=O)O)cc1S(=O)(=O)N1CCCCCC1,8
9,N#Cc1ccc(NC(=O)c2cc3cccc(NC(=O)Cc4cccc(Cl)c4)c3[nH]2)c(C(=O)O)c1,0.25
10,Cc1sc(C(=O)Nc2ccc(Br)cc2C(=O)O)cc1S(=O)(=O)NC1Cc2ccccc2C1,8
11,N#Cc1ccc(NC(=O)c2nc3ccccc3s2)c(C(=O)O)c1,0.25
12,Cn1c(C(=O)Nc2ccc(C#N)cc2C(=O)O)cc2cccc(-c3ccc(C(C)(C)C)cc3)c21,4
13,CCCCCCSc1ccc(C(=O)Nc2ccc(C#N)cc2C(=O)O)nc1,0.125
14,COc1cc(C(=O)Nc2ccc(Br)cc2C(=O)O)nn1Cc1ccccc1,128
15,CC(C)(C)N1C(=O)c2ccc(C(=O)Nc3ccc(Br)cc3C(=O)O)cc2C1=O,4
16,N#Cc1ccc(NC(=O)c2noc3cc(OS(=O)(=O)Cc4ccccc4)ccc23)c(C(=O)O)c1,0.25
17,O=C(O)c1cc(Br)ccc1NC(=O)c1noc2ccc(Br)cc12,1
18,N#Cc1ccc(NC(=O)c2cncc(-c3cnc4ccccc4c3)c2)c(C(=O)O)c1,> 128
19,CC(=O)Nc1cccc(-c2ccc3onc(C(=O)Nc4ccc(C#N)cc4C(=O)O)c3c2)c1,0.5
20,CCCCCCCCCSc1ccc(C(=O)Nc2ccc(C#N)cc2C(=O)O)cn1,1
21,CCCOc1ccccc1C(=O)Nc1cccc2cc(C(=O)Nc3ccc(C#N)cc3C(=O)O)[nH]c12,1
22,N#Cc1ccc(NC(=O)c2cc3cccc(NC(=O)CCC4CCCC4)c3[nH]2)c(C(=O)O)c1,0.25
23,O=C(O)c1cc(Br)ccc1NC(=O)c1noc2ccc(S(=O)(=O)Nc3ccccc3)cc12,0.03
24,O=C(Nc1ccc(Cl)cc1C(=O)O)c1cc(-c2ccc(C(F)(F)F)cc2)on1,0.5
25,N#Cc1ccc(NC(=O)c2cc3cccc(NC(=O)COCc4ccccc4)c3[nH]2)c(C(=O)O)c1,1
26,N#Cc1ccc(NC(=O)c2noc3ccc(S(=O)(=O)Nc4ccccc4)cc23)c(C(=O)O)c1,0.015
27,CCCCCCSc1cnc(C(=O)Nc2ccc(Br)cc2C(=O)O)cn1,0.5
28,N#Cc1ccc(NC(=O)c2cc3cccc(NC(=O)Cc4cccc(C(F)(F)F)c4)c3[nH]2)c(C(=O)O)c1,0.25
29,COc1cccc(CC(=O)Nc2cccc3cc(C(=O)Nc4ccc(C#N)cc4C(=O)O)[nH]c23)c1,0.5
30,Cc1noc(C)c1-c1cnc(C(=O)Nc2ccc(C#N)cc2C(=O)O)cn1,> 128
